We go through 16 compounds from US4298617A, “Symmetrical and asymmetrical sulfinyl-dicarbamates” (priority 1979, dated 1981).

For one data set, the system named is Swiss white mice. Kind of data set: in vivo. How it is done: (§1) Mammalian toxicity was determined against Swiss white mice. The test compound was applied orally using corn oil or propylene glycol as the carrier, depending upon solubility of the compound therein.
Data set [1] relates to house flies, Musca domestica. Nature of the data set: Topical insecticidal activity against house flies (percent mortality 24 hours after application). The format is in vivo. To be noted: read-out: House flies LD50. The protocol:
(§2) Representative compounds of the N,N'-sulfinyldicarbamate esters of the invention were tested for insecticidal activity against two insect species, house flies, Musca domestica, and mosquito larvae, Culex pipiens. Stock 1% concentrated solutions of each of the test compounds were made in acetone, and such solutions diluted with acetone to a concentration of 0.001-0.1%. House flies were treated topically on the notum by 1 μl of each of the diluted acetone solutions and percent mortality was counted 24 hours after application. Insects were held at a constant temperature of 60° F. Larvicidal activity was determined by applying 1 ml of the acetone solution in 100 ml of water containing 20 3rd instar mosquito larvae. Results are presented as LD50 in μg/g for house flies and LC50 in ppm for mosquito larvae.

A further data set in a line: in vivo. To be noted: mouse, in vivo, po. How it is done: as §1
In data set [2] the test system is mosquito larvae, Culex pipiens. Kind of data set: Larvicidal activity against mosquito larvae. To be noted: 3rd instar larvae, 1 ml acetone solution in 100 ml water, 20 larvae. The data set is classed as in vivo. The protocol: as §2
[3] abbreviates: topical on the notum, 1 μl acetone solution, 24 hours, 60° F.

Like-named read-outs stand apart in the source and are kept apart here.

For the compound `CNC(=O)Oc1ccccc1OC(C)C` [2-isopropoxyphenyl methylcarbamate, reference compound], the “Mice LD50” value in the data set with Swiss white mice (oral, corn oil or propylene glycol carrier) is listed as 60 mg/kg.

For `CCOC(=O)N(C)[S+]([O-])N(C)C(=O)Oc1cccc(C(C)C)c1` (centres unmarked) [3-isopropylphenyl N-[N'-(ethoxycarbonyl)-N'-(methylaminosulfinyl)]-N-methylcarbamate], the 50% lethal dose (LD50) is 75 mg/kg in data set [1] (topical, 24 h) and 50 to 100 mg/kg in “in vivo”.

`CN(C(=O)Oc1cccc2c1OC(C)(C)C2)[S+]([O-])N(C)C(=O)Oc1cccc2c1OC(C)(C)C2` [Example I, N,N'-sulfinyldi-(2,3-dimethyl-2,3-dihydrobenzofuranyl-7 methylcarbamate)]: the LD50 was determined as 20 mg/kg in data set [1] (topical, 24 h) and 165 mg/kg in the data set “in vivo”.

Turning to `CC(C)Oc1ccccc1OC(=O)N(C)[S+]([O-])N(C)C(=O)Oc1ccccc1OC(C)C` [Example II, N,N'-sulfinyldi-(2-isopropoxyphenyl methylcarbamate)], the LD50 amounted to 85 mg/kg in data set [1] (topical, 24 h) and 940 mg/kg in “in vivo”.

For the compound `CSC(C)=NOC(=O)N(C)[S+]([O-])N(C)C(=O)ON=C(C)SC` [Example III], the LD50 in data set [1] (setting [3]) worked out at 40 mg/kg; in “in vivo”, 210 mg/kg.

Consider `COC(=O)N(C)[S+]([O-])N(C)C(=O)Oc1cccc2c1OC(C)(C)C2` (centres unmarked) [Example VII, 2,3-dihydro-2,2-dimethylbenzofuranyl-7 N-[N'-(methoxycarbonyl)-N'-(methylaminosulfinyl)]-N-methylcarbamate], for which the LD50 is 9 mg/kg in data set [1] (topical, 24 h) and 62 mg/kg in the data set “in vivo”.

Turning to `CCCOC(=O)N(C)[S+]([O-])N(C)C(=O)ON=C(C)SC` (centres unmarked) [Example VI], the values for the 50% lethal dose (LD50) (in data set [1] (setting [3]); in “in vivo”) were 6.6 mg/kg and 160 mg/kg, respectively.

Regarding `CCCOC(=O)N(CC)[S+]([O-])N(C)C(=O)ON=C(C)SC` (centres unmarked) [Example V], the LD50 in data set [1] (setting [3]) came to 7 mg/kg; in the data set “in vivo” it was 115 mg/kg.

Take `CSC(C)(C)C=NOC(=O)N(C)[S+]([O-])N(C)C(=O)ON=CC(C)(C)SC` [IV, N,N'-sulfinyldi[2-methyl-2-(methylthio)propionaldehyde O-(methylcarbamoyl)-oxime]]: the LD50 in data set [1] (setting [3]) was determined as 6.5 mg/kg; in “in vivo” it was 1.8 mg/kg.

Consider `CCCOC(=O)N(C)[S+]([O-])N(C)C(=O)Oc1cccc2c1OC(C)(C)C2` (centres unmarked) [IX, 2,3-dihydro-2,2-dimethylbenzofuranyl-7 N-[N'-(n-propoxycarbonyl)-N'-(methylaminosulfinyl)]-N-methylcarbamate], for which the LD50 in data set [1] (topical, 24 h) came to 9 mg/kg; in “in vivo” it was 100 mg/kg.

In the case of `CNC(=O)ON=C(C)SC` [S-methyl N-(methylcarbamoyloxy)thioacetimidate, reference compound], the median lethal dose (LD50) in the data set “in vivo” is 10 mg/kg.

Turning to `CCOC(=O)N(C)[S+]([O-])N(C)C(=O)Oc1cccc2c1OC(C)(C)C2` (centres unmarked) [VIII, 2,3-dihydro-2,2-dimethylbenzofuranyl-7 N-[N'-(ethoxycarbonyl)-N'-(methylaminosulfinyl)]-N-methylcarbamate], the LD50 amounted to 13 mg/kg in data set [1] (topical, 24 h) and 56 mg/kg in the data set “in vivo”. Also, in data set [2], the “Culex LC50” value came to 0.04 ppm.

On to `CCCCCCCOC(=O)N(C)[S+]([O-])N(C)C(=O)Oc1cccc2c1OC(C)(C)C2` (centres unmarked) [X, 2,3-dihydro-2,2-dimethylbenzofuranyl-7 N-[N'-(n-heptoxycarbonyl)-N'-(methylaminosulfinyl)]-N-methylcarbamate], for which the 50% lethal dose (LD50) stood at 13.5 mg/kg in data set [1] (topical, 24 h) and 150 mg/kg in “in vivo”. Besides, in data set [2], the “Culex LC50” value was found to be 0.015 ppm.

Consider `CCCOC(=O)N(C)[S+]([O-])N(C)C(=O)Oc1ccccc1OC(C)C` (centres unmarked) [XI, 2-isopropoxyphenyl N-[N'-(n-propoxycarbonyl)-N'-(methylaminosulfinyl)]-N-methylcarbamate], for which the LD50 was 20 mg/kg in data set [1] (topical, 24 h) and 500 to 1000 mg/kg in the data set “in vivo”. Moreover, the “Culex LC50” value in data set [2] is reported as 0.18 ppm.

In the case of `COC(=O)N(C)[S+]([O-])N(C)C(=O)Oc1cccc(C(C)C)c1` (centres unmarked) [XII, 3-isopropylphenyl N-[N'-(methoxycarbonyl)-N'-(methylaminosulfinyl)]-N-methylcarbamate], the LD50 was 80 mg/kg in data set [1] (topical, 24 h) and 70 mg/kg in the data set “in vivo”.

Consider `CNC(=O)Oc1cccc2c1OC(C)(C)C2` [carbofuran, 2,3-dihydro-2,2-dimethyl-7-benzofuranyl methylcarbamate, reference compound], for which, in the data set with Swiss white mice (mouse, in vivo, po), the “Mice LD50” value is 2-8.

Usually LD50 stands for the dose at which mortality reaches 50%.
